Experimental data taken from patent publication US20230364079A1, “COMPOUND AS BRAIN-PERMEABLE BTK OR HER2 INHIBITOR, PREPARATION METHOD THEREFOR, AND USE THEREOF” (CHENGDU HYPERWAY PHARMACEUTICALS CO., LTD., priority 2020, published 2023).

Columns and labels:
[1] = molecular target: BTK mutation-type C481S kinase (Homo sapiens (Human), UniProt Q06187, C481S); experiment: BTK-C481S kinase activity inhibition test in vitro (Caliper EZ Reader); format: biochemical
Protocol: (§1) In the tests on the activity of inhibiting BTK and HER2 kinase in vitro in the examples of the present disclosure, powder of the compound was dissolved in 100% DMSO to prepare a 10 mM stock solution and stored at-20° C. in the dark. […] In addition, the compounds were subjected to experiments such as liver microsome metabolic stability, rat PK, rat brain penetration rate, and drug efficacy model in the examples of the present disclosure.
(§2) Compound powders were dissolved in 100% DMSO to make 10 mM stock solutions, which were stored at -20° C. in the dark.
(§3) 2: Kinase Reaction Process
(§4) (1) Preparation of 1 × Kinase buffer.
(§5) (5) After centrifugation at 1000 rpm for 30 seconds, the reaction plate was shaken to mix well and incubated at room temperature for 10 min.
(§6) (6) A 5/3-fold final concentration of a mixed solution of ATP and Kinase substrate 2 was prepared with 1 × Kinase buffer.
(§7) (7) 15 µL of the mixed solution of ATP and substrate with 5/3-fold final concentration was added to start the reaction.
(§8) (8) The 384-well plate was centrifuged at 1000 rpm for 30 seconds, shaken to mix well, and incubated at room temperature for 10 min.
(§9) (9) 30 µL of a stop solution was added to stop the kinase reaction, and after centrifugation at 1000 rpm for 30 seconds, the plate was shaken to mix well;
(§10) (10) The conversion rate was read with Caliper EZ Reader.
(§11) where Conversion%_sample indicates the conversion rate reading of the sample; Conversion%_min is the average reading of the negative control wells, representing the conversion rate reading of the wells without enzyme activity; Conversion%_max is the average reading of the ratio of the positive control wells, representing the conversion rate reading of the wells without compound inhibition.
(§12) Dose-Response Curve Fitting
(§13) With the log value of the concentration as the X-axis, and the percentage inhibition rate as the Y-axis, the dose-effect curve was fitted using the log(inhibitor) vs. response-Variable slope of the analysis software GraphPad Prism 5, so as to determine the IC50 value of each compound on the enzyme activity.
(§14) The calculation formula was: […]

[2] = molecular target: BTK wild-type kinase (Homo sapiens (Human), UniProt Q06187); experiment: BTK kinase activity inhibition test in vitro (Caliper EZ Reader); format: biochemical
Protocol: as §1, §2, §3, §4, §5, §6, §7, §8, §9, §10, §11, §12, §13, §14

[3] = Liver microsome metabolic stability test, human; format: in vitro ADME; conditions: for microsomal CLint / half-life: liver microsomes; for half-life: read-out: T½
Protocol: (§15) 1: To the sample wells of T0, T5, T10, T20, T30, T60 and NCF60, 10 µL of the test or reference working solution and 80 µL of microsome working solution (hepatic microsome with a protein concentration of 0.5 mg/mL) were added, and to Blank60 well, only the microsome working solution was added. Then samples of the Blank60, T5, T10, T20, T30 and T60 other than T0 and NCF60 were placed in a 37° C. water bath and pre-incubated for about 10 min.
(§16) 2: To the T0 sample well, 300 µL of stop solution (containing 200 ng/mL tolbutamide and 200 ng/mL labetalol in acetonitrile solution) was added first, followed by 10 µL of NADPH regeneration system working solution.
(§17) 3: After the pre-incubation of Blank60, T5, T10, T20, T30 and T60 incubation plates, 10 µL of NADPH regeneration system working solution was added to each sample well to start the reaction, and 10 µL of 100 mM potassium phosphate buffer was added to the NCF60 sample well.
(§18) 4: After incubation for an appropriate time (such as 5, 10, 20, 30 and 60 min), to each test sample well and control well of the Blank60, T5, T10, T20, T30, T60 and NCF60 plates, 300 µL of stop solution was added to terminate the reaction.
(§19) 5: All sample plates were shaken to mix well and centrifuged at 4000 rpm for 20 min, and 100 µL of the supernatant of the test sample or control sample was taken and diluted with 300 µL of pure water for LC-MS/MS analysis.
(§20) 6: Data analysis: T½ and CLint(mic) (µL/min/mg) values were calculated according to the first-order elimination kinetics. The first-order elimination kinetics equation was: […]

[4] = Liver microsome metabolic stability test, rat; format: in vitro ADME; conditions: for microsomal CLint / half-life: liver microsomes; for half-life: read-out: T½
Protocol: as §15, §16, §17, §18, §19, §20

[5] = Pharmacokinetic test, oral, SD rats; format: in vivo; conditions: oral 10 mg/kg, plasma; for AUC(0-inf) / Cmax / half-life: rat; for Cmax: read-out: Cmax; for half-life: read-out: T½ (converted)
Protocol: Each test compound was administered orally (10 mg/kg, 3 rats in each group) to SD rats for pharmacokinetic study. […] Animals were fasted overnight before oral administration, and fed again after 4 h of administration. […] At each collection time point, 3 whole blood samples were collected at a the collection volume of about 0.2-0.3 mL. […] The collected plasma was stored at -20° C. before analysis. 20 µL of plasma sample was added into a 1.6 mL 96-well deep-well plate, added with 200 µL of working internal standard solution (the same volume of vehicle was added to the blank instead of internal standard), vortexed for 1 min, and centrifuged at 5800 rpm for 10 min. 100 µL of the supernatant was added to a 96-well injection plate for LC-MS/MS analysis.

Sequence of BTK wild-type kinase (Q06187 whole entry): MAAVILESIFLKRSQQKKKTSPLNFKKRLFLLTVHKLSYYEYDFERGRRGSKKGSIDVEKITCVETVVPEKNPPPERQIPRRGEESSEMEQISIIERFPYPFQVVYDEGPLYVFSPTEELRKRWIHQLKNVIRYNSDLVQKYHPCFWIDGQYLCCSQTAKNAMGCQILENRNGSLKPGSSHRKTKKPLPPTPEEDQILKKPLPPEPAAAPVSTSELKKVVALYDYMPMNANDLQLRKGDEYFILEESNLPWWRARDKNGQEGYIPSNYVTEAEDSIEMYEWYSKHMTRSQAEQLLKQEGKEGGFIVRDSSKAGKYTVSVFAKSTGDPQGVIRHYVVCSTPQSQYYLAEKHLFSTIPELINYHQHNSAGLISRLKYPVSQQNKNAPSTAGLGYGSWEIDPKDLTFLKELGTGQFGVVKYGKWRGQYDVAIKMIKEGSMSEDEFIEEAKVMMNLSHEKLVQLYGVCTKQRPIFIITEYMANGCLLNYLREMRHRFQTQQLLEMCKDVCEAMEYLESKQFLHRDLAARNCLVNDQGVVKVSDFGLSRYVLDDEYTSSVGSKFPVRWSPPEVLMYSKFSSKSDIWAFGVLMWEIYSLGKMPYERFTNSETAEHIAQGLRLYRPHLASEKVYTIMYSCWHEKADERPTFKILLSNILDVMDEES
Sequence of BTK mutation-type C481S kinase (Q06187 whole entry C481S): as the sequence (Q06187 whole entry) above, with C481S counted along it

IC50 [1] [nM]	IC50 [2] [nM]	half-life ([3]; 0.5 mg/mL protein) [min]	half-life ([4]; 0.5 mg/mL protein) [min]	%Remaining (60 min) [3] [%]	%Remaining (60 min) [4] [%]	SMILES	further results
20 to 100	20 to 100	–	–	–	–	Nc1cccc(NC(=O)c2ccc(-c3nc([C@@H]4CC[C@@H](CO)OC4)n4ccnc(N)c34)cc2)n1 (single isomer, unassigned) [Compound 2-A-P2]	–
–	5 to 20	> 145	143	–	–	COc1ccccc1C(=O)NCc1ccc(-c2nn(C3CCC(CO)OC3)c3ncnc(N)c23)cc1 (single isomer, unassigned) [Compound 60-A]	microsomal CLint [3]: < 9.6 µL/min/mg; microsomal CLint [4]: 9.7 µL/min/mg
< 5	< 5	> 145	114	85.4	72.7	Nc1nccn2c(C3CCC(CO)OC3)nc(-c3ccc(C(=O)Nc4cc(C(F)(F)F)ccn4)cc3)c12 (single isomer, unassigned) [Compound 109-P1]	Cl [5]: 1.62 mL/min/kg; AUC(0-inf) [5]: 104000 ng·h/mL; Cmax [5]: 16700 ng/mL; half-life [5]: 170 min; microsomal CLint [3]: < 9.6 µL/min/mg; microsomal CLint [4]: 12.2 µL/min/mg
5 to 20	20 to 100	–	–	99.9	63.7	Nc1nccn2c(C3CC[C@@H](CO)OC3)nc(-c3ccc(C(=O)Nc4ccccn4)cc3F)c12 (some centres unmarked) [Compound 1-B]	CLint [3]: <9.6 µL/min/mg; T½ ([3]; 0.5 mg/mL protein): >145 min; CLint [4]: 18.2 µL/min/mg; T½ ([4]; 0.5 mg/mL protein): 76.1 min
< 5	< 5	35.7	11.4	31.7	12.7	COc1cccc(Oc2ccc(-c3nc(C4CCC(CO)OC4)n4ccnc(N)c34)cc2)c1F (centres unmarked) [Compound 5]	Cl [5]: 69.13 mL/min/kg; AUC(0-inf) [5]: 2520 ng·h/mL; Cmax [5]: 463 ng/mL; half-life [5]: 70.2 min
< 5	< 5	–	–	–	–	[2H]C([2H])([2H])Oc1cccc(Oc2ccc(-c3nc(C4CCC(CO)OC4)n4ccnc(N)c34)cc2)c1F (centres unmarked) [Compound 7]	–
< 5	< 5	40.9	20.8	37.4	13.6	Nc1nccn2c(C3CCC(CO)OC3)nc(-c3ccc(Oc4cccc(F)c4F)cc3)c12 (centres unmarked) [Compound 8]	–
–	–	28.6	12.2	24.5	3.2	Nc1nccn2c(C3CCC(CO)OC3)nc(-c3ccc(Oc4cccc(Cl)c4F)cc3)c12 (centres unmarked) [Compound 9]	–
–	–	11.1	11.8	2.6	3.0	COc1cccc(Oc2ccc(-c3nc(C4CCC(CO)OC4)n4c(Cl)cnc(N)c34)cc2)c1F (centres unmarked) [Compound 12]	–
–	5 to 20	37.5	21.7	31.8	14.6	Nc1nccn2c(C3CCC(CO)OC3)nc(-c3ccc(Oc4ccccc4)cc3)c12 (centres unmarked) [Compound 16]	–
5 to 20	5 to 20	–	–	–	–	Nc1nccn2c(C3CCC(CO)OC3)nc(-c3ccc(Oc4ccccc4)cc3F)c12 (centres unmarked) [Compound 17]	–
–	5 to 20	29.4	16.7	23.5	7.9	Nc1nccn2c(C3CCC(CO)OC3)nc(-c3ccc(Oc4cccc(C(F)(F)F)c4F)cc3)c12 (centres unmarked) [Compound 19]	–
–	< 5	18.5	5.4	9.7	0.1	Cc1cccc(Oc2ccc(-c3nc(C4CCC(CO)OC4)n4ccnc(N)c34)cc2)c1F (centres unmarked) [Compound 24]	–
5 to 20	5 to 20	44.5	30.1	39.1	24.5	Nc1nccn2c(C3CCC(CO)OC3)nc(-c3ccc(C(=O)c4ccccc4)cc3)c12 (centres unmarked) [Compound 26]	–
5 to 20	5 to 20	> 145	> 145	112.0	90.3	Nc1nccn2c(C34CCC(CO)(CC3)OC4)nc(-c3ccc(C(=O)Nc4ccccn4)cc3)c12 [Compound 34]	Cl [5]: 8.1 mL/min/kg; AUC(0-inf) [5]: 20600 ng·h/mL; Cmax [5]: 11100 ng/mL; half-life [5]: 102 min
–	–	–	–	109.9	69	COc1ccccc1C(=O)NCc1ccc(-c2nn(C3CCC(CO)OC3)c3ncnc(N)c23)cc1 (centres unmarked) [Compound 60-A]	–
–	5 to 20	37.7	17	31.7	8.5	Nc1nccn2c(C3CCC(CO)OC3)nc(-c3ccc(Oc4c(F)cccc4F)cc3)c12 (centres unmarked) [Compound 64]	–
–	5 to 20	105	45.7	77.7	37.3	Cc1ccnc(NC(=O)c2ccc(-c3nc(C4CCC(CO)OC4)n4ccnc(N)c34)cc2)c1 (centres unmarked) [Compound 70]	–
–	< 5	> 145	46.5	81.1	39.5	COc1cccc(Oc2ccc(-c3nc(C4CCC(CO)OC4)n4ccnc(N)c34)cc2)c1 (centres unmarked) [Compound 101]	Cl [5]: 48.75 mL/min/kg; AUC(0-inf) [5]: 3670 ng·h/mL; Cmax [5]: 1770 ng/mL; half-life [5]: 75 min
< 5	< 5	> 145	> 145	100.3	85.7	N#Cc1ccnc(NC(=O)c2ccc(-c3nc(C4CCC(CO)OC4)n4ccnc(N)c34)cc2)c1 (centres unmarked) [Compound 103]	Cl [5]: 16.67 mL/min/kg; AUC(0-inf) [5]: 10400 ng·h/mL; Cmax [5]: 4730 ng/mL; half-life [5]: 104 min
5 to 20	20 to 100	–	–	–	–	Nc1nccc2c1n(-c1ccc(Oc3ccccc3)cc1)c(=O)n2C1CCC(CO)OC1 (centres unmarked) [Compound 120]	–
5 to 20	5 to 20	–	–	–	–	COc1cccc(C(F)(F)c2ccc(-c3nc(C4CCC(CO)OC4)n4ccnc(N)c34)cc2)c1 (centres unmarked) [Compound 121]	–
100 to 1000	100 to 1000	–	–	–	–	Nc1nccn2c(C3CCC(CO)OC3)nc(-c3ccc(C(F)(F)c4cc(C(F)(F)F)ccn4)cc3)c12 (centres unmarked) [Compound 124]	–
–	100 to 1000	30.2	13.5	25.4	25.8	Nc1nccn2c(C34CCC(CO)(CC3)OC4)nc(-c3ccc(C(F)(F)c4cccc(Cl)c4F)cc3)c12 [Compound 152]	Cl [5]: 272.78 mL/min/kg; AUC(0-inf) [5]: 1330 ng·h/mL; Cmax [5]: 200 ng/mL; half-life [5]: 169 min
–	100 to 1000	33.3	22.3	25.8	14.2	Nc1nccn2c(C34CCC(CO)(CC3)OC4)nc(-c3ccc(C(F)(F)c4ccccc4Cl)cc3)c12 [Compound 155]	–
